Legend:
[1] = test system: G401 rhabdoid (kidney) cancer cells; assay: Xenograft nude mouse model, G401; format: in vivo; settings: nude mice, 100 mg/kg in PEG300
Description: (§1) JR (rhabdomyosarcoma), HepG2 (liver carcinoma), SR Liquid Leukemia (leukemia), RSI 184 B Lymphoma (lymphoma), and G401 rhabdoid (kidney) cancer cells for use in a xenograft mouse model were collected from JR, HepG2, SR Liquid Leukemia, RS1184 B Lymphoma, and G401 rhabdoid tumor cell lines and injected at 5×10^6 cells per nude mouse in a volume of 100 μl subcutaneously. The animals were examined three times weekly to determine the progression of the tumors and determine body weight. Dosing started when tumors reached the ˜75-150 mm^3 size. Animals were randomized and distributed in groups in such a way that mean tumor weights in all groups were within 15% of the mean tumor weight in Group 1 (Control—vehicle group). Upon reaching the ˜75-150 mm^3 target size an effective amount of lansoprazole was administered to the mice in a suspension of PEG300 at a concentration of 100 mg/kg.

[2] = test system: JR, HepG2, SR Liquid Leukemia, RS1184 B Lymphoma, and G401 rhabdoid tumor cell lines; assay: Xenograft nude mouse model, all tumor lines; format: in vivo; settings: subcutaneous xenografts
Description: as §1

[3] = test system: SR Liquid Leukemia (leukemia); assay: Xenograft nude mouse model, SR Liquid Leukemia; format: in vivo; settings: nude mice, 100 mg/kg in PEG300
Description: as §1

[4] = test system: 786-O (kidney cancer); assay: MTT tumor cell growth assay; format: cell-based; settings: 786-O cells, lansoprazole 1-100 μM, 48 hours
Description: (§2) In one study, adherent cells were plated approximately 16-24 hours before the day of the experiment in 180 μl growth media. On the day of the experiment, the plated adherent cells were analyzed and counted and suspension cells were plated in 180 μl growth media. 10× lansoprazole compounds and vehicle was prepared. The 10× lansoprazole compounds were prepared by diluting lansoprazole to final concentrations of 100 μM, 30 μM, 10 μM, 3 μM, and 1 μM. A vehicle was prepared by preparing a solution of PBS, equivalent to the volume used for 10 μM lansoprazole wherein the 1× solution constitutes ˜0.06% PBS. 10 μl of the various 10× lansoprazole solutions and the vehicle were added to the cells. The cells were incubated at 37° C., 5% CO2 for 48 hours. The media was then aspirated. The cell suspension was then spun at 1500 RPM for 10 minutes. The media was slowly removed. 200 μl of MTT solution was added to each well with a concentration of 0.863 mg/ml MTT in the growth media. The cells were incubated at 37° C., 5% CO2 for 4 hours and the medium is then aspirated. The plate containing the cell suspension was then spun at 1500 RPM for 10 minutes. The media was slowly removed using a multichannel pipettor. 100 μl of DMSO was then added to each well. The cells were incubated at 37° C., 5% CO2 for 5 minutes and the absorbance was obtained at 560 nm using a Dynex Opsys MR plate reader. The cells used for this procedure were the following cell lines: IGROV1 (ovarian cancer); OVCAR 8 (ovarian cancer); ES-2 (ovarian cancer); CAOV3 (ovarian cancer); OVCAR5 (ovarian cancer); SUDHL4 (lymphoma); RPMI8226 (myeloma); RPMI6666 (Hodgkin's lymphoma); NC37 (lymphoma); GDM-1 (leukemia); MC/CAR (prostate cancer); DU-145 (prostate cancer), J45-01 (leukemia), MOLT3 (leukemia), HUT78, J-gamma-1 (leukemia), MCF7 […], COL0205 (colon cancer), HL60 CLONE 15 (leukemia), T47D (breast cancer), P116 (intestinal cancer), KU812 (leukemia), SW620 (colon cancer), MK92-M1 (lymphoma), MV-4-11 (leukemia), HS578T (breast cancer), HT29 (colon cancer), HCT 116 (colon cancer), CAKI-1 (kidney cancer), A549 (lung cancer), H460 (lung cancer), A3 (colon cancer), MDA-MB231 […], MALME 3M (melanoma), RXF393 (kidney cancer), RS4.11 (leukemia), PC3 (prostate cancer), OVCAR3 (ovarian cancer), MDA-MB435 (melanoma), HUT102 (lymphoma), HL60 (leukemia), CCRF-CEM (leukemia), HUT78 (lymphoma), 786-O (kidney cancer), ACHN (kidney cancer), A498 (kidney cancer), H226 (lung cancer), H522 (lung cancer), HOP92 (lung cancer), SNB 19 (brain cancer), OVCAR4 (ovarian cancer), H9 (lymphoma), UO-31 (kidney cancer), HH (lymphoma), DAUDI (leukemia), LOXIMVI (melanoma), NAMALWA (lymphoma), EKVX (lung cancer), DOHH2 (lymphoma), SNB75 (brain cancer), SKMEL28 (melanoma), SKMEL5 (melanoma), SKMEL2 (melanoma), M14 (melanoma), UACC 257 (melanoma), H332M (lung cancer), KM12 (colon cancer), HCC2998 (colon cancer), G401 (kidney cancer), RS1184 (lymphoma), MC116 (leukemia), MOLT4 (leukemia), JM1 (liver cancer), HOP-62 (lung cancer), HCT-15 (colon cancer), SF-539 (brain cancer), SF295 (brain cancer), ST486 (lymphoma), U251 (brain cancer), and UACC-62 (melanoma).

[5] = test system: UO-31 (kidney cancer); assay: MTT tumor cell growth assay; format: cell-based; settings: UO-31 cells, lansoprazole 1-100 μM, 48 hours
Description: as §2

[6] = test system: RS4.11 (leukemia); assay: MTT tumor cell growth assay; format: cell-based; settings: RS4.11 cells, lansoprazole 1-100 μM, 48 hours
Description: as §2

[7] = test system: MDA-MB-231; assay: MTT tumor cell growth assay; format: cell-based; settings: MDA-MB-231 cells, lansoprazole 1-100 μM, 48 hours
Description: as §2

[8] = test system: HH (lymphoma); assay: MTT tumor cell growth assay; format: cell-based; settings: HH cells, lansoprazole 1-100 μM, 48 hours
Description: as §2

[9] = test system: HCC2998 (colon cancer); assay: MTT tumor cell growth assay; format: cell-based; settings: HCC2998 cells, lansoprazole 1-100 μM, 48 hours
Description: as §2

[10] = test system: HUT102 (lymphoma); assay: MTT tumor cell growth assay; format: cell-based; settings: HUT102 cells, lansoprazole 1-100 μM, 48 hours
Description: as §2

[11] = test system: H460 (lung cancer); assay: MTT tumor cell growth assay; format: cell-based; settings: H460 cells, lansoprazole 1-100 μM, 48 hours
Description: as §2

[12] = test system: MC116 (leukemia); assay: MTT tumor cell growth assay; format: cell-based; settings: MC116 cells, lansoprazole 1-100 μM, 48 hours
Description: as §2

[13] = test system: H522 (lung cancer); assay: MTT tumor cell growth assay; format: cell-based; settings: H522 cells, lansoprazole 1-100 μM, 48 hours
Description: as §2

[14] = test system: HepG2 (liver carcinoma); assay: Xenograft nude mouse model, HepG2; format: in vivo; settings: nude mice, 100 mg/kg in PEG300
Description: as §1

In the case of `Cc1c(OCC(F)(F)F)ccnc1C[S+]([O-])c1nc2ccccc2[nH]1` (stereo not drawn) [lansoprazole], the “treating tumor cells derived from tumor cell line” value (from here on “treating tumor cells derived”) [1] is reported as “especially effective”, the “life span of the population” value ([2]; nude mice, 100 mg/kg in PEG300) is reported as “extended life span” and the “tumor growth in mice” value ([2]; 100 mg/kg in PEG300, FIGS. 4A-4C and 5A-5C) is reported as “effectively reduced tumor growth”. The “treating tumor cells derived” value [3] was “especially effective”, the “tumor cell growth reduction” value [4] was “significant tumor cell growth reduction” and the “tumor cell growth reduction” value [5] was “significant tumor cell growth reduction”. For the same compound, the “tumor cell growth reduction” value [6] was “significant tumor cell growth reduction”, the “tumor cell growth reduction” value [7] was “significant tumor cell growth reduction” and the “tumor cell growth reduction” value [8] was “significant tumor cell growth reduction”. The “tumor cell growth reduction” value [9] was “significant tumor cell growth reduction”, the “tumor cell growth reduction” value [10] was “significant tumor cell growth reduction” and the “tumor cell growth reduction” value [11] was “significant tumor cell growth reduction”. The “tumor cell growth reduction” value [12] was “significant tumor cell growth reduction”, the “tumor cell growth reduction” value [13] was “significant tumor cell growth reduction” and the “treating tumor cells derived” value [14] was “especially effective”.

From US20100184807A1, “Methods to inhibit tumor cell growth by using proton pump inhibitors” (Bio-Quant, Inc., priority 2008, published 2010)
